From US10137070B2 (Industry-Academic Cooperation Foundation, Yonsei University, priority 2016, dated 2018)

Experiments:
[1] = Body weights and food intakes of hairless mice fed experimental diets; type: in vivo, albino hairless mice (Skh-1); settings: 0.2% in AIN-93 diet for 10 weeks; UVB-irradiated hairless mice
From the text: (§1) 5-week-old female albino hairless mice (Skh-1) used in the present example were purchased from ORIENTBIO (Gyeonggi-do, Korea) and subjected to an adaptation period of 1 week with solid feed. The experimental animal was divided into 4 groups and 5 mice were assigned to each group. All the experimental groups were divided into a normal control not irradiated with ultraviolet rays (−UVB), a group irradiated with ultraviolet rays (+UVB), and a group irradiated with ultraviolet rays and treated with α-ionone (αIO) or vitamin C (VitC). During a rearing period, the experimental groups were freely fed feed and water, temperature and humidity were maintained at 22±1° C. and 60±5%, a light period and a dark period were adjusted every day to 12 hours.
(§2) The −UVB and +UVB groups were fed a purified diet formulated based on the AIN-93 rodent diet composition (Ree yes, P G et al., J Nutr, 123:1939-1951, 1993) for 10 weeks, the αIO group were fed an AIN-93 purified diet with 0.2% of α-ionone (Sigma-Aldrich) for 10 weeks, and the VitC group was fed a diet, prepared by adding 0.2% of vitamin C (Sigma-Aldrich) to the AIN-93 purified diet, for 10 weeks. The diets were supplied daily with water between 10 am and 11 am, and food intakes were measured daily.
(§3) During the experimental rearing period, dorsal parts of the hairless mice were irradiated with UVB three times a week, and the amount of ultraviolet radiation was 73 mJ/cm^2 for the first one week, 146 mJ/cm^2 for the second week, and 219 mJ/cm^2 for the third week to the tenth week. During rearing, body weights and skin thicknesses of the experimental groups were measured weekly, and images of dorsal skin parts thereof were taken. The skin thicknesses of buttocks of the hairless mice were measured using a digital micro caliper (Marathon Watch Company Ltd, Ontario, Canada).

[2] = test system: human skin fibroblasts; test: Procollagen type I C-peptide (PIP) secretion of UVB-irradiated human skin fibroblasts (EIA kit); type: cell-based; settings: 100 μM each; UVB 20 mJ/cm^2; 24 hours culture; mean of three wells
Procedure: Primary dermal fibroblasts (normal, human, neonatal, ATCC No. PCS-201-010) were purchased from ATCC (Manassas, Va., USA). The purchased cells were incubated in a 5% CO2 incubator at 37° C. by using a fibroblast growth medium (Promo Cell, Heidelberg) and used in experiments.
To examine collagen biosynthesis ability, human fibroblasts were distributed into a 12 well-plate at a concentration of 1.0×10^6 cells/well, α-ionone and vitamin C were added thereto at a concentration of 100 μM each, and the resulting human fibroblasts were incubated in a CO2 incubator for 24 hours. After removing the medium from each well, the plate was washed once with PBS, and 1 ml of PBS was added thereto, followed by irradiation with ultraviolet B (UVB) at a dose of 20 mJ/cm^2. The PBS of each well was replaced by a medium and the human fibroblasts were cultured for 24 hours, and then the amount of procollagen secreted into the medium was measured using a procollagen type C-peptide EIA kit (Takara Bio, Japan). A standard solution included in the collagen measurement kit was diluted according to concentration, absorbance was measured at 450 nm to create a standard concentration curve, and the amount of collagen produced was calculated. […]

[3] = test system: Collagen type III alpha1 (Col3α1); test: RT-PCR gene expression in dorsal skin tissue: Col3α1; type: in vivo, albino hairless mice (Skh-1); settings: 0.2% in diet for 10 weeks
From the text: as §1
as §2, with “daily. […]” for “daily.”

[4] = test system: Matrix metallopeptidase 1b (MMP-1b); test: RT-PCR gene expression in dorsal skin tissue: MMP-1b; type: in vivo, albino hairless mice (Skh-1); settings: 0.2% in diet for 10 weeks
From the text: as §1
as §2, with “daily. […]” for “daily.”

[5] = test system: skin tissues of ultraviolet rays-irradiated hairless mice; test: Skin moisture content, moisture evaporation, elasticity and erythema index of UVB-irradiated hairless mice (Corneometer, Tewameter, Cutometer, Mexameter); type: in vivo, albino hairless mice (Skh-1); settings: 0.2% in diet for 10 weeks; UVB three times a week; last day
From the text: as §1, §2, §3
Skin moisture content, moisture evaporation, elasticity, and the erythema index of each of the experimental animal groups were measured once on the last day of the experiment using Corneometer®, Tewameter®, Cutometer®, and Mexameter® (Courage+Khazaka electronic GmbH), respectively. During the measurement, the value obtained by lightly pressing a certain portion of the experimental animal or the like was recorded.

[6] = test system: Matrix metallopeptidase 9 (MMP-9); test: RT-PCR gene expression in dorsal skin tissue: MMP-9; type: in vivo, albino hairless mice (Skh-1); settings: 0.2% in diet for 10 weeks
From the text: as §1
as §2, with “daily. […]” for “daily.”

[7] = test system: Matrix metallopeptidase 3 (MMP-3); test: RT-PCR gene expression in dorsal skin tissue: MMP-3; type: in vivo, albino hairless mice (Skh-1); settings: 0.2% in diet for 10 weeks
From the text: as §1
as §2, with “daily. […]” for “daily.”

[8] = test system: Collagen type I alpha2 (Col1α2); test: RT-PCR gene expression in dorsal skin tissue: Col1α2; type: in vivo, albino hairless mice (Skh-1); settings: 0.2% in diet for 10 weeks
From the text: as §1
as §2, with “daily. […]” for “daily.”

[9] = test system: collagen fibers in dermis layers of UV-irradiated hairless mice; test: Collagen fibers in dermis layer by Masson's trichrome staining; type: in vivo, albino hairless mice (Skh-1); settings: 0.2% in diet for 10 weeks; UVB for 10 weeks
From the text: as §1
as §2, with “daily. […]” for “daily.”

[10] = test system: skin epidermis layer of UV-irradiated hairless mice; test: Skin epidermis layer thickness by H&E staining; type: in vivo, albino hairless mice (Skh-1); settings: 0.2% in diet for 10 weeks; UVB for 10 weeks
From the text: as §1
as §2, with “daily. […]” for “daily.”

[11] = test system: skin of UV-irradiated hairless mice; test: Skin thickness of UV-irradiated hairless mice (digital micro caliper); type: in vivo, albino hairless mice (Skh-1); settings: last day, 0.2% in diet for 10 weeks
From the text: as §1
as §2, with “daily. […]” for “daily.”

[12] = test system: Collagen type I alpha1 (Col1α1); test: RT-PCR gene expression in dorsal skin tissue: Col1α1; type: in vivo, albino hairless mice (Skh-1); settings: 0.2% in diet for 10 weeks
From the text: as §1
as §2, with “daily. […]” for “daily.”

[13] = test system: dorsal skin of ultraviolet rays-irradiated hairless mice; test: Wrinkle formation on dorsal skin of UVB-irradiated hairless mice (images, silicone replica, image analyzer); type: in vivo, albino hairless mice (Skh-1); settings: 0.2% in diet for 10 weeks
From the text: as §1, §2, §3
The skin of each hairless mouse irradiated with ultraviolet rays for 10 weeks was replicated using silicone rubber and a degree of the formation of wrinkles was measured. A disk with a circular hole having a diameter of 1 cm was attached to a dorsal part of the hairless mouse, reagents for preparing a replica were mixed, the mixed resultant was thinly spread on the dorsal art of the hairless mouse and completely dried, and then the disk was carefully detached therefrom, thereby completing the preparation of the replica. The replica was prepared at a temperature of about 20° C. to about 23° C. and a humidity of about 45% to about 50% under constant temperature and constant humidity conditions, a silicon rubber impression material (Epigem, Seoul, Korea) for preparing a replica was used. To analyze the prepared replica, four wrinkle indexes, such as a total wrinkle area, a maximum wrinkle depth, a mean depth, and a mean length were analyzed using a computer image analyzer (Visioline VL650, Courage+Khazaka electronic GmbH, Germany).

[14] = test system: Matrix metallopeptidase 1a (MMP-1a); test: RT-PCR gene expression in dorsal skin tissue: MMP-1a; type: in vivo, albino hairless mice (Skh-1); settings: 0.2% in diet for 10 weeks
From the text: as §1
as §2, with “daily. […]” for “daily.”

[15] = test system: microorganisms harmful to the human body; settings: Findic et al 2009; cited from earlier work
[16] = test system: rats; settings: 32 rats, orally 10 mg/day for 8 weeks; cited from earlier work
[17] = in vivo; cited from earlier work
[18] = replica, computer image analyzer

## O=C1O[C@H]([C@@H](O)CO)C(O)=C1O [vitamin C, reference compound]
[1]
  effect on body weights: no significant effect
  effect on food intakes: no significant effect
[2]
  increase in the amount of collagen (procollagen type I C-peptide secreted) compared to control cells irradiated with ultraviolet rays alone (+UVB): 37%

## CC(=O)/C=C/C1C(C)=CCCC1(C)C (stereo not drawn) [α-ionone, (3E)-4-(2,6,6-trimethylcyclohex-2-en-1-yl)but-3-en-2-one]
[3]
  expression of collagen type 3α1 compared to the +UVB control: significant increase
[4]
  expression of MMP-1b gene compared to the +UVB control: significant decrease
[5]
  decrease in erythema index compared to the +UVB control: 26%
  decrease in moisture evaporation compared to the +UVB control: 46%
  increase in elasticity of skin tissue compared to the +UVB control: 77%
  increase in moisture content of skin tissue compared to the +UVB control: 78%
[6]
  expression of MMP-9 gene compared to the +UVB control: significant decrease
[7]
  expression of MMP-3 gene compared to the +UVB control: significant decrease
[8]
  expression of collagen type 1α2 compared to the +UVB control: significant increase
[9]
  collagen fibers of the dermis layer (Masson's trichrome, aniline blue) compared to the control irradiated alone: relatively more compact and regularly arranged
[10]
  thickness of the thickened epidermis layer due to UV irradiation (H&E staining): significant decrease
[11]
  decrease in skin thickness compared to the +UVB control: 19%
[1]
  effect on body weights: no significant effect
  effect on food intakes: no significant effect
[12]
  expression of collagen type 1α1 compared to the +UVB control: significant increase
[13]; UVB for 10 weeks
  degree of formation of wrinkles in silicone rubber replica compared to the +UVB control: significant improvement on the thickness and depth of wrinkles
  skin wrinkles in images of dorsal skin (naked eye) compared to the +UVB control: significant decrease in the thickness and depth of wrinkles
[13]; [18]
  decrease in maximum wrinkle depth compared to the +UVB control: 49%
  decrease in mean depth of wrinkles compared to the +UVB control: 39%
  decrease in mean length of wrinkles compared to the +UVB control: 68%
  decrease in total wrinkle area compared to the +UVB control: 60%
[2]
  increase in the amount of collagen (procollagen type I C-peptide secreted) compared to control cells irradiated with ultraviolet rays alone (+UVB): 37%
[14]
  expression of MMP-1a gene compared to the +UVB control: significant decrease

## ionone
[15]
  antimicrobial activity: strong antimicrobial activity
[16]
  toxicity after oral administration: no toxicity was shown
[17]
  LD50: 2 g/kg body weight
